Tests used:
primed macrophage cells = assay: cytokine TNFα response of primed macrophage cells; format: cell-based; conditions: added alone to primed macrophage cells
Description: Macrophage cells were then matured to a point where they were primed and ready to respond to an input. Adding varying levels of LPS and measuring the cytokine TNFα response confirmed the maturity and readiness of the macrophage cells.
A variety of different honeys were then added to the primed macrophage cells and the cytokine response measured to determine if there were any trends. ethylglyoxal (MGO) was also added with or without honey to determine if this ingredient of manuka honey also influenced the immune stimulation effects. A sugar solution was also used to determine if this had any effect as well.
Honey samples (5% (w/v) and LPS (1000 ng/mL) were prepared in water and heated at 80° C. for 30 min in a shaking water bath. After heat processing, further dilutions were performed in RPMI medium and the resulting honey tested for cytokine response.

THP-1 cells = assay: TNF-α release/production from THP-1 cell line; format: cell-based; conditions: FIG. 8, THP-1 cell line
Description: In this example the ability of three New Zealand honeys to elicit the release of TNF-α from the monocytic cell lines THP-1 and U937 were investigated and the bioactive component responsible identified.
In this example, the effect or otherwise of pure AGP was analysed to determine how AGP influences cytokine stimulation as exemplified by TNF-α production from THP-1 cell line.
Varying doses of LPS were tested against THP-1 cell line and the cytokine response measured. […] The results further reinforce the presence of type II AG compounds and their influence on inflammation.

**Q.** What does the source list for `CC(=O)C=O` [MGO, methylglyoxal]?
**A.** impact on immune stimulation (cytokine response) (primed macrophage cells): no impact; pro-inflammatory response (THP-1 cells): no significant pro-inflammatory response

— US9827275B2, “Immunostimulatory compositions and methods of use thereof” (Comvita New Zealand Ltd., priority 2010, dated 2017)
